Laboratory results as given in patent US11339171B2, “MDM2 inhibitors” (Gan & Lee Pharmaceuticals, priority 2017, dated 2022).
“And” between values parts separate entries of the source, which are not always exact repeats. Equal values may be shown once. Read-outs that look alike come from different tables or passages of the source.

Key:
[1] = target: T1, MDM2 (Homo sapiens, UniProt Q00987); test: Inhibition test of MDM2-P53 (GST-MDM2, Biotin-P53, Anti-GST-Tb, SA-XL665); assay type: binding
T1 construct: made in house
Method in brief: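 HTRF-type assay using 4 nM GST-MDM2 (final), Biotin-P53, SA-XL665 and anti-GST-Tb in PBS with 0.1% BSA, 5 mM DTT and 1 mM AEBSF. Compounds in 5-fold serial dilutions over twelve points; incubation 90 min at 25° C with shaking before plate-reader read-out.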

[2] = Pharmacokinetics in ICR mice after intravenous and intragastric administration; assay type: in vivo; details: for MRT inf: read-out: MRT(0-∞); for Vd: read-out: Vz; for MRT last: read-out: MRT(0-t)
Procedure: Experimental Example 3 Determination of the Pharmacokinetics of the Mdm2 Inhibitors of the Present Invention in Mice
ICR mice were used as the test animals, and the concentrations of the drugs in plasma of mice at different time points after intravenous administration and intragastric administration of the representative compounds were measured by a LC/MS/MS method, so as to study the pharmacokinetic behavior of the compounds of the present invention in mice and evaluate the pharmacokinetic characteristics thereof.
Some compounds prepared in Examples 1-180 of the present invention.
The control drug HDM201 was prepared by the method disclosed in patent No. CN104203952A.
Healthy adult ICR mice, male, 6-9 weeks old, weighing 20-30 g, purchased from Shanghai Xipuer-Bikai Laboratory Animal Co., Ltd., Animal Production License No.: SCXK (HU) 2013-0016
3.2.3 Preparation of Test Drugs
Intragastric or intravenous administration: an appropriate amount of sample was weighed, dissolved in 5% DMSO+40% PEG400+55% (10% HP-β-CD in Saline) to prepare a 0.5 mg/ml solution for intragastric or intravenous administration.
3.2.4 Administration of Test Drugs
Intravenous administration: for each test compound, 3 male ICR mice were administered intravenously at a dose of 2 mg/kg and an administration volume of […] after fasting overnight.
Intragastric administration: for each test compound, 3 male ICR mice were administered intragastrically at a dose of 5 mg/kg and an administration volume of […] after fasting overnight.
3.3 Experimental Operation
The collected plasma was stored at −80° C. before analysis. The plasma sample was analyzed by LC-MS/MS, and the sample was pretreated by protein precipitation method. The linear range of sample analysis was 1 to 2000 ng/ml. The lowest quantification limit was 1 ng/mL. WinNonlin (Pharsight, USA) was used to calculate the following pharmacokinetic parameters: area under the curve AUC(0-t), area under the curve AUC(0-∞), half-life t1/2, retention time MRT(0-∞), blood drug concentration Cmax, time taken to reach the peak blood drug concentration Tmax, bioavailability F, apparent volume of distribution Vz, and clearance rate CL.

[3] = tested on: human osteosarcoma cell line SJSA-1; test: Inhibition of proliferation of human osteosarcoma cell line SJSA-1 (DAPI staining, In Cell Analyzer); details: Homo sapiens, SJSA-1, 72 h, read-out: IC50 (nM), inhibitory activity on proliferation of human osteosarcoma cell line SJSA-1, SJSA-1, incubated 72 h
Procedure: 2.2 Experiment Preparation:
2.2.1 Preparation of a culture medium for human osteosarcoma cell line SJSA-1: RPMI1640+10% FBS+1% penicillin/streptomycin
2.2.2 Preparation of a test compound solution:
a. the test compound solution with a certain concentration was taken, and diluted with the culture medium to obtain a compound solution with a final concentration of 20 μM;
b. 200 μL of a culture medium containing 0.2% DMSO (dimethyl sulfoxide) was added into H2-H10 of a 96-well plate; 300 μl of the above solution was added into H1; and
c. 100 μL was taken out from well H1, added into H2, and mixed well; then 100 μl of the resultant solution was taken and added into H3, and dilution was carried out in sequence until H9 to obtain the 3-fold serial dilution of the test compound.
2.3 Experimental Process:
2.3.1 SJSA-1 cells were inoculated into a 96-well cell plate with black transparent bottom at 4000 cells/100 μl/well, and cultured overnight at 37° C.;
2.3.3 Fixation: the cell plate was taken out, the culture medium was removed, and 50 μL of 4% paraformaldehyde solution was added to each well to fix for 10 min;
2.3.4 50 μl of 0.1 M glycine was added to neutralize for 10 min;
2.3.5 Washing was performed with 1×PBS (phosphate buffer solution pH7.2) twice;
2.3.6 Permeabilization: 50 μL of 0.2% TritonX-100 (Triton) was added per well, and permeabilization was carried out at room temperature for 10 min;
2.3.7 Washing was performed with 1×PBS (phosphate buffer solution pH7.2) twice;
2.3.9 Washing was performed with 1×PBS (phosphate buffer solution pH7.2) for three times; and
2.3.10 Scanning and analysis were performed by In cell analyzer.
The inhibition rate of each compound at each concentration point was calculated according to the following formula, and curve fitting was performed by GraphPad Prism 6.0 software to obtain the IC50 value.

[4] = ICR mice, IV 2 mg/kg, individual animal, 2 mg/kg
[5] = ICR mice, PO 5 mg/kg, individual animal, 5 mg/kg
[6] = male, ICR, mouse, plasma, iv, 2 mg/kg, ICR mice, IV 2 mg/kg, individual animal
[7] = male, ICR, mouse, plasma, iv, 2 mg/kg, ICR mice, IV 2 mg/kg, mean of 3 animals
[8] = male, ICR, mouse, plasma, po, 5 mg/kg, ICR mice, PO 5 mg/kg, individual animal
[9] = male, ICR, mouse, plasma, po, 5 mg/kg, ICR mice, PO 5 mg/kg, mean of 3 animals

T1 sequence (Q00987 whole entry): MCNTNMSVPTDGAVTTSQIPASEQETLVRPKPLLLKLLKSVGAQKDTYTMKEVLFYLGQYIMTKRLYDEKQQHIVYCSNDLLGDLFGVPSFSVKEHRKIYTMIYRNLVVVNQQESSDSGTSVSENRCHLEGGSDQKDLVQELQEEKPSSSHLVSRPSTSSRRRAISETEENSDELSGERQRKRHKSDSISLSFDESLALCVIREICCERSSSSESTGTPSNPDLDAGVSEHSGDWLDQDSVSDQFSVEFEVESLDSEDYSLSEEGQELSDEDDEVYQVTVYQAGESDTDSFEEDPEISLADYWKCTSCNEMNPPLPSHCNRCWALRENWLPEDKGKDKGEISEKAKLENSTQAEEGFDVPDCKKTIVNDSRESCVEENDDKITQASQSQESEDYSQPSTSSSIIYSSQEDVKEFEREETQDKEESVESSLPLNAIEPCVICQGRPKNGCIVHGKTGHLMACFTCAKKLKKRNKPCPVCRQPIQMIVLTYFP

## COc1cc(C2CC2)ncc1-c1nc2c(n1C(C)C)[C@@]1(C(=O)Nc3cc(Cl)ccc31)N(c1cc(Cl)ccc1C)C2=O [Example S-103, (S)-6-chloro-5′-(5-chloro-2-methylphenyl)-2′-(6-cyclopropyl-4-methoxypyridin-3-yl)-3′-isopropyl-3′H-spiro[dihydroindole-3,4′-pyrrolo[3,4-d]imidazole]-2,6′(5′H)-dione]
[1]
  IC50: 1.81 nM
[2]; [4]
  AUC(0-t): 10460.62 ng·h/mL and 4009.87 ng·h/mL and 5508.40 ng·h/mL
  AUC(0-∞): 10483.52 ng·h/mL and 5119.53 ng·h/mL and 8771.81 ng·h/mL
  CL: 3.18 mL/min/kg and 6.51 mL/min/kg and 3.80 mL/min/kg
  Cmax: 1045.99 ng/mL and 1333.49 ng/mL
  MRT(0-t): 4.16 h and 2.05 h and 2.33 h
  MRT(0-∞): 3.75 h and 5.91 h
  Vz: 1.53 L/kg and 1.35 L/kg
  t1/2: 2.71 h and 4.11 h
[2]; [5]
  AUC(0-t): 13078.28 ng·h/mL and 19872.62 ng·h/mL
  AUC(0-∞): 14231.55 ng·h/mL and 19888.79 ng·h/mL
  Cmax: 2344.01 ng/mL and 3008.06 ng/mL
  MRT(0-t): 3.36 h and 4.45 h
  MRT(0-∞): 3.93 h and 4.47 h
  Tmax: 4.00 h
  t1/2: 1.72 h and 2.23 h
[2]; male, ICR, mouse, plasma, iv, 2 mg/kg, ICR mice, IV 2 mg/kg, individual animal, read-out: Cmax
  Cmax: 1330 ng/mL
[2]; [6]
  MRT inf: 4.21 h
  Vd: 0.79 L/kg
[2]; male, ICR, mouse, plasma, iv, 2 mg/kg, ICR mice, IV 2 mg/kg, individual animal, read-out: Tmax
  Tmax: 1 h
[2]; male, ICR, mouse, plasma, iv, 2 mg/kg, ICR mice, IV 2 mg/kg, individual animal, read-out: t1/2 (converted)
  half-life: 2.89 h
[2]; [7]
  AUC(0-inf): 8120 ng·h/mL
  clearance: 4.5 mL/min/kg
  MRT last: 2.85 h
  MRT inf: 4.62 h
  Vd: 1.22 L/kg
[2]; male, ICR, mouse, plasma, iv, 2 mg/kg, ICR mice, IV 2 mg/kg, mean of 3 animals, read-out: AUC(0-t)
  AUC(0-t): 6660 ng·h/mL
[2]; male, ICR, mouse, plasma, iv, 2 mg/kg, ICR mice, IV 2 mg/kg, mean of 3 animals, read-out: Cmax
  Cmax: 1240 ng/mL
[2]; male, ICR, mouse, plasma, iv, 2 mg/kg, ICR mice, IV 2 mg/kg, mean of 3 animals, read-out: Tmax
  Tmax: 1 h
[2]; male, ICR, mouse, plasma, iv, 2 mg/kg, ICR mice, IV 2 mg/kg, mean of 3 animals, read-out: t1/2 (converted)
  half-life: 3.24 h
[2]; [8]
  AUC(0-inf): 11700 ng·h/mL
  MRT last: 3.08 h
  MRT inf: 3.54 h
[2]; male, ICR, mouse, plasma, po, 5 mg/kg, ICR mice, PO 5 mg/kg, individual animal, read-out: AUC(0-t)
  AUC(0-t): 11000 ng·h/mL
[2]; male, ICR, mouse, plasma, po, 5 mg/kg, ICR mice, PO 5 mg/kg, individual animal, read-out: Cmax
  Cmax: 2380 ng/mL
[2]; male, ICR, mouse, plasma, po, 5 mg/kg, ICR mice, PO 5 mg/kg, individual animal, read-out: Tmax
  Tmax: 2 h
[2]; male, ICR, mouse, plasma, po, 5 mg/kg, ICR mice, PO 5 mg/kg, individual animal, read-out: t1/2 (converted)
  half-life: 1.84 h
[2]; [9]
  AUC(0-inf): 15300 ng·h/mL
  MRT last: 3.63 h
  MRT inf: 3.98 h
[2]; male, ICR, mouse, plasma, po, 5 mg/kg, ICR mice, PO 5 mg/kg, mean of 3 animals, read-out: AUC(0-t)
  AUC(0-t): 14600 ng·h/mL
[2]; male, ICR, mouse, plasma, po, 5 mg/kg, ICR mice, PO 5 mg/kg, mean of 3 animals, read-out: Cmax
  Cmax: 2580 ng/mL
[2]; male, ICR, mouse, plasma, po, 5 mg/kg, ICR mice, PO 5 mg/kg, mean of 3 animals, read-out: Tmax
  Tmax: 3.33 h
[2]; male, ICR, mouse, plasma, po, 5 mg/kg, ICR mice, PO 5 mg/kg, mean of 3 animals, read-out: t1/2 (converted)
  half-life: 1.93 h
[2]; male, ICR, mouse, plasma, po, 5 mg/kg, oral intragastric administration 5 mg/kg, read-out: AUC0-t
  AUC(0-t): 14600 ng·h/mL
[2]; male, ICR, mouse, plasma, po, 5 mg/kg, oral intragastric administration 5 mg/kg, read-out: half-life (converted)
  half-life: 1.93 h
[2]; male, mouse, plasma, ICR mice, PO 5 mg/kg vs IV 2 mg/kg, from mean values, read-out: F* (bioavailability)
  bioavailability: 87.9%
[3]
  IC50: 40.5 nM
